How the values were obtained:
white-rot fungus [1] = assay: White-rot fungus cultured on bagasse from treated sugar cane, lignin and chitin staining (Examples 5, 6, 8); assay type: cell-based, Phanerochaete chrysosporium; details: for Staining intensity Chitin / Staining intensity Lignin: fungus cultured three months, scale 9 to 0
From the text: (§1) Phanerochaete chrysosporium, a lignin degrading fungus, was maintained on potato dextrose agar (PDA). Lignin degradation studies employed culturing the fungus in a liquid mineral salt medium that contained treated plant materials, such as bagasse from a plant that had been treated with a modified precursor preparation. The bagasse in the medium comprised the sole source of organic carbon for support of fungal growth. One inoculum “loop,” a standard tool used in the preparation and culturing of microbes, was used to inoculate the medium.
(§2) Staining intensity ratings were subjectively established on ten-point rating scales and used as qualitative rankings within each individual example. Unless otherwise indicated, staining for lignin present in bagasse was performed by both the phlorgluciol and hypochlorite/sulfite techniques and was rated subjectively on a ten-step scale, from most intense staining (9) to no staining (0). Staining for chitin present in the bagasse was also subjectively rated on a ten-step scale from most intense staining (9) to no staining (0). All staining techniques were performed in triplicate, unless otherwise indicated.
Technique 1: Place sections in a drop of saturated, aqueous phloroglucinol in 20% HCl. Lignin appears as deep red (9) to light purple (1).
Technique 2: Place sections in commercial hypochlorite bleach for five minutes and transfer to a 1% solution of sodium sulfite. Lignin appears as a bright red cherry color (9) that fades to brown (1) in approximately 1 hour.
Technique: Sections are autoclaved in saturated KOH for 10 minutes to convert chitin to chitosan. Washed sections are placed in a few drops of iodine-potassium iodide solution (2 gm KI in 100 ml water and add 0.2 gm I2) in 1% sulfuric acid. Abundant amounts of chitosans appear dark violet (9) and a lower concentration as a light blue stain (1). Care should be exercised since cellulose may also stain under these conditions. For this reason, if necessary, cellulose can be removed by flooding with Schweitzer's reagent (saturated copper hydroxide in ammonium hydroxide) prior to iodine-potassium iodide treatment.
In similar fashion to Example 4, sugar cane plants were treated at four weeks and also at two weeks before harvest, with five grams of the modified precursors described above, by drenching the sugar cane roots. Bagasse samples were then obtained and approximately 10 g used in the following experiment.
In this experiment, white-rot fungus was cultured on the bagasse samples for three months. Specifically, P. chrysosporium was maintained on PDA and then added to a liquid mineral salt medium that contained the treated plant materials, such as treated bagasse. One inoculum “loop,” a standard tool used in the preparation and culturing of microbes, was used to inoculate the bagasse-containing medium. The medium with the bagasse comprised the only sole source of organic carbon for support of fungal growth. After culturing the fungus on the bagasse stored in the liquid medium, the bagasse was collected from the medium and then stained for lignin and chitin.
Sugar cane plants were treated with either 0.5 g, 5 g or 50 g of 2,6-difluorocinnamic acid or 3-cholorcinnamic acid four weeks prior to harvest and also at two weeks prior to harvest. Thus, the total dosage of each modified precursor is either 1 g, 10 g, or 100 g. White-rot fungus was then cultured on the extracted bagasse samples for three months and lignin and chitin staining performed.
Glyphosine (Sigma Aldrich) is commercially available as a sugarcane ripener for use several weeks before harvest. In this example, glyphosine, at one-fourth the label rate (i.e., approximately 4 oz per acre), was added to 3-chlorocinnamic acid during drench treatments of 5 gm, both four weeks and two weeks prior to harvest. The label rate of glyphosine was 16 oz. White-rot fungus was cultured on the bagasse samples for three months according to the methodology described in Example 2.

White rot fungus = White rot fungus cultured on plant samples treated with fungicidal candidates, lignin and chitin staining (Example 12 ii); assay type: cell-based, Phanerochaete chrysosporium; details: 100 ppm four weeks before harvest, fungus cultured three months, scale 9 to 0
Method: as §2
Tulip tree, White Pine and corn plants were treated with fungicidal candidates four weeks before harvest. White rot fungus (Phanerochaete chrysosporium) was then cultured on the plant samples for three months. Staining and quantification of lignin and chitin present in plant materials was performed as described above.

Soil microorganisms [2] = assay: In situ soil degradation of corn stalk from treated corn plants (Example 10); details: two sprays of 20 mM, buried in soil six months, scale 9 to 0
From the text: Plants were cultivated in a greenhouse environment and modified precursors and control precursors were applied via a foliar spray. Treated plants were permitted to naturally mature, senesce and dry down. After dry down several centimeter long sections were taken from nodal and from internodal regions at the base of the stalk for further in situ soil treatment. After treatment, thin sections were made, stained and visually inspected. Observations were made with a dissecting or a light microscope.
(§3) Fertile sandy loam topsoil in a cultivated field that had been used for the sequential cultivation of corn for the prior two years constituted the in situ environment. The field was located in the town Ingleside on the Eastern Shore of Maryland. The tissue burial and recovery work was completed in multiple marked plots.
as §2
Treatment of corn plants included two sprays, both one month after seedling emergence and once at tasseling with a spray application of 20 mM of one of the chemicals listed in Table 7, i.e., cinnamic acid, 2,6-difluorocinnamic acid, 3-chlorocinnamic acid or 2-chloro-4-hydroxybenzaldehyde with a silicone spreader/sticker until runoff. Dried stalk samples were buried in soil, as described above, for six months from the March through August time period. All staining was done in quintuplicate.

Soil microorganisms [3] = assay: In situ soil degradation of bagasse from treated sugar cane (Example 9); details: 10 grams drench at 4 and 2 weeks before harvest, buried in soil six months, scale 9 to 0
From the text: as §3, §2
Sugar cane plants were treated four weeks and two weeks before harvest with drench applications of 10 grams of one of the chemicals listed in Table 6, i.e., cinnamic acid, 2,6-difluorocinnamic acid, 3-chlorocinnamic acid or 2-chloro-4-hydroxybenzaldehyde. Approximately, 10 g of extracted bagasse samples were mixed equally with sand, and the mixture placed into a nylon sack and buried approximately 6 inches below the ground. The samples were buried in such a fashion for six months from the March through August time period. All staining was done in quintuplicate.

white-rot fungus [4] = assay: White-rot fungus cultured on corn stalk fibrous extract from treated corn (Example 11); assay type: cell-based, Phanerochaete chrysosporium; details: for Staining intensity Chitin / Staining intensity Lignin: corn stalk, fungus cultured three months, scale 9 to 0
From the text: as §1, §2
Glyphosate (Sigma Aldrich) is commercially available as a no-till herbicide for use with corn. In this example glyphosate at the one-fourth the label rate (i.e., approximately 3 oz per acre) was added to 3-chlorocinnamic acid. The label rate of glyphosate was 12 oz per acre. The glyphosate was applied through a spray treatment that included two sprays, both one month after seedling emergence and once at tasseling. The spray application was applied with a silicone spreader/sticker until runoff. White-rot fungus was cultured on potato dextrose agar and then use to inoculate a medium containing the corn stalk fibrous extract as described in Example 2 above. These samples were cultured under appropriate conditions for three months.

[5] = sugar cane bagasse, 5 g drench at 4 and 2 weeks before harvest
[6] = total dosage 1 gm (0.5 g at 4 and 2 weeks before harvest)
[7] = total dosage 10 gm (5 g at 4 and 2 weeks before harvest)
[8] = total dosage 100 gm (50 g at 4 and 2 weeks before harvest)
[9] = Example 8, 10 gm with Glyphosine at one-fourth the label rate
[10] = Example 8, 10 gm without glyphosine
[11] = two sprays of 20 mM with Glyphosate at one-fourth the label rate
[12] = two sprays of 20 mM, without glyphosate

O=Cc1cc(Br)c(O)c(Br)c1 [3,5-Dibromo-4-hydroxybenzaldehyde]
Staining intensity Chitin (white-rot fungus [1]; [5]): 6
Staining intensity Lignin (white-rot fungus [1]; [5]): 5

c1ccc2[nH]c(-c3cscn3)nc2c1 [Thiabendazole, 2-(4-thiazolyl)benzimidazole]
Intensity of Chitin Stain (White rot fungus; Corn plant): 1
Intensity of Lignin Stain (White rot fungus; Corn plant): 9
Intensity of Chitin Stain (White rot fungus; Tulip tree): 1
Intensity of Lignin Stain (White rot fungus; Tulip tree): 9
Intensity of Chitin Stain (White rot fungus; White Pine tree): 2
Intensity of Lignin Stain (White rot fungus; White Pine tree): 8

O=C(O)C=Cc1c(F)cccc1F [2,6-Difluorocinnamic Acid]
Staining intensity Chitin (white-rot fungus [1]; [5]): 3
Staining intensity Lignin (white-rot fungus [1]; [5]): 5
Staining intensity Chitin (white-rot fungus [1]; [6]): 5
Staining intensity Lignin (white-rot fungus [1]; [6]): 4
Staining intensity Chitin (white-rot fungus [1]; [7]): 3
Staining intensity Lignin (white-rot fungus [1]; [7]): 6
Staining intensity Chitin (white-rot fungus [1]; [8]): 2
Staining intensity Lignin (white-rot fungus [1]; [8]): 7
Staining intensity Chitin (Soil microorganisms [2]): 6
Staining intensity Lignin (Soil microorganisms [2]): 5
Staining intensity Chitin (Soil microorganisms [3]): 4
Staining intensity Lignin (Soil microorganisms [3]): 5

O=C(O)C=Cc1ccccc1 [Cinnamic Acid, reference compound]
Staining intensity Chitin (white-rot fungus [1]; [5]): 9
Staining intensity Lignin (white-rot fungus [1]; [5]): 1
Staining intensity Chitin (Soil microorganisms [2]): 9
Staining intensity Lignin (Soil microorganisms [2]): 0-1
Staining intensity Chitin (Soil microorganisms [3]): 8
Staining intensity Lignin (Soil microorganisms [3]): 1

O=C(O)C(F)=Cc1ccccc1 [alpha-Fluorocinnamic Acid]
Staining intensity Chitin (white-rot fungus [1]; [5]): 6

CCCC1COC(Cn2cncn2)(c2ccc(Cl)cc2Cl)O1 (centres unmarked) [Propiconazole, 1-[[2-(2,4-dichlorophenyl)-4-propyl-1,3-dioxolan-2-yl]methyl]-1H-1,2,4-triazole]
Intensity of Chitin Stain (White rot fungus; Corn plant): 1
Intensity of Lignin Stain (White rot fungus; Corn plant): 8
Intensity of Chitin Stain (White rot fungus; Tulip tree): 2
Intensity of Lignin Stain (White rot fungus; Tulip tree): 7
Intensity of Chitin Stain (White rot fungus; White Pine tree): 1
Intensity of Lignin Stain (White rot fungus; White Pine tree): 8

O=C(O)CN(CP(=O)(O)O)CP(=O)(O)O [Glyphosine, reference compound]
Effect on recalcitrance of lignin to biodegradation by white-rot fungi conferred by halogen-substituted precursors (white-rot fungus [1]; glyphosine at one fourth the label rate added to the modified precursor, sugar cane): increases the effectiveness

COC(=O)Nc1nc2ccccc2[nH]1 [Carbendazim, methyl-2-benzimidazole carbamate]
Intensity of Chitin Stain (White rot fungus; Corn plant): 2
Intensity of Lignin Stain (White rot fungus; Corn plant): 8
Intensity of Chitin Stain (White rot fungus; Tulip tree): 1
Intensity of Lignin Stain (White rot fungus; Tulip tree): 8
Intensity of Chitin Stain (White rot fungus; White Pine tree): 2
Intensity of Lignin Stain (White rot fungus; White Pine tree): 7

O=Cc1ccc(O)cc1Cl [2-Chloro-4-hydroxybenzaldehyde]
Staining intensity Chitin (white-rot fungus [1]; [9]): 2
Staining intensity Lignin (white-rot fungus [1]; [9]): 7
Staining intensity Chitin (white-rot fungus [1]; [10]): 3
Staining intensity Lignin (white-rot fungus [1]; [10]): 6
Staining intensity Chitin (white-rot fungus [1]; [5]): 4
Staining intensity Lignin (white-rot fungus [1]; [5]): 3
Staining intensity Chitin (Soil microorganisms [2]): 3
Staining intensity Lignin (Soil microorganisms [2]): 6
Staining intensity Chitin (Soil microorganisms [3]): 3
Staining intensity Lignin (Soil microorganisms [3]): 6

O=C(O)C=Cc1cccc(Cl)c1 [3-Cholorcinnamic Acid, 3-Cholorcinnamic acid]
Staining intensity Chitin (white-rot fungus [1]; [9]): 2
Staining intensity Lignin (white-rot fungus [1]; [9]): 7
Staining intensity Chitin (white-rot fungus [1]; [10]): 3
Staining intensity Lignin (white-rot fungus [1]; [10]): 5
Staining intensity Chitin (white-rot fungus [1]; [5]): 7
Staining intensity Lignin (white-rot fungus [1]; [5]): 5
Staining intensity Chitin (white-rot fungus [1]; [6]): 4
Staining intensity Lignin (white-rot fungus [1]; [6]): 4
Staining intensity Chitin (white-rot fungus [1]; [7]): 2
Staining intensity Lignin (white-rot fungus [1]; [7]): 6
Staining intensity Chitin (white-rot fungus [1]; [8]): 1
Staining intensity Lignin (white-rot fungus [1]; [8]): 7
Staining intensity Chitin (white-rot fungus [4]; [11]): 2
Staining intensity Lignin (white-rot fungus [4]; [11]): 7
Staining intensity Chitin (white-rot fungus [4]; [12]): 3
Staining intensity Lignin (white-rot fungus [4]; [12]): 6
Staining intensity Chitin (Soil microorganisms [2]): 4
Staining intensity Lignin (Soil microorganisms [2]): 7
Staining intensity Chitin (Soil microorganisms [3]): 3
Staining intensity Lignin (Soil microorganisms [3]): 6

O=C(O)CNCP(=O)(O)O [glyphosate, Glyphosate, reference compound]
Effect on effectiveness of halogen-substituted precursor molecules in reducing lignin biodegradation by white-rot fungi (white-rot fungus [4]; glyphosate at one-fourth the label rate added to the spray, corn): increases the effectiveness

From patent US6906239B2, “Plant preparations” (priority 2002, dated 2005)
